# Assays:
# [1] = system: BT-20 (expressing wild type KRas); assay: Proliferation Assay (Cell Viability Assay); type: cell-based; details: Homo sapiens; BT-20, Breast (TNBC), KRas WT
# Procedure, shortened: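 Cells plated at 2000–5000/well overnight, then treated 2–4 days at 37 °C, 5% CO2 with compound at 10 μM single dose or serial dilutions for IC50, in 0.3% DMSO and 10% FBS. Viability read by CellTiter 96 Aqueous One (MTS); % proliferation inhibition calculated from raw data.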
# [2] = system: HPAF-II (expressing KRas G12D mutant); assay: Proliferation Assay (Cell Viability Assay); type: cell-based; details: Homo sapiens, pancreatic
# Procedure, shortened: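 Cells (2000–5000/well; CF-PAC1 in IMDM, HPAF-II in EMEM, NCI-H441 and NCI-H1299 in RPMI 1640) were plated overnight, then exposed to compounds at 10 μM or in serial dilutions for IC50 with 0.3% DMSO and 10% FBS for 2–4 days at 37 °C. Viability was read with CellTiter 96 Aqueous One, and percent inhibition was calculated.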
# active/cleaved caspase 3 = assay: Cell-based caspase activation assay (western blot); design: species or system human
# Method: (§1) Biological Example 4: Puma Expression and Caspases Activation Assay
# (§2) Protocols for Cell-Based Puma Expression and Caspase Activation Assays
# (§3) Cell lines: All human tumor-derived cancer cell lines were purchased from American Type Culture Collection. Human tumor-derived cancer cell lines Panc-1 (expressing KRas G12D mutant), MiaPaca-2 (expressing KRas G12C mutant), A549 (expressing KRas G12S mutant), and A375 (expressing wild type KRas) were grown in complete DMEM-High Glucose medium and NCI-H1975 (expressing wild type KRas), MM.1R (expressing wild type KRas) and IM.9 (expressing wild type KRas) were grown in RPMI1640 medium. Human tumor-derived cancer cell line BT-549 (expressing wild type KRas) was grown in RPMI1640 medium with 11.8U insulin. All mediums were supplemented with penicillin (100 U/mL), streptomycin (100 μg/mL), and 10% heat-inactivated FBS at 37° C. in a humidified incubator with 5% CO2.
# (§4) Method: Cells were plated at 300,000 to 800,000 cells/well density in a 6-well plate in the presence of 10% FBS. The next day small molecules to be tested were added to the cells in the final concentration of 3 μM in the presence of 0.3% DMSO for 48 hours incubation at 37° C. For IC50 value determination, serial dilutions of compounds were added to cells under the same conditions. Following 48 hours of incubation cells were lysed with lysis buffer containing 1% Triton X-100, EDTA, and Halt™ Protease & Phosphatase Inhibitor Cocktail (Thermo Scientific). Protein concentration was assessed by BCA protein assay (Thermo Scientific). Increase expression of PUMA and active/cleaved forms of caspase 3, caspase 6 and caspase 9 were detected by western blot.
# (§5) Western blot protocol: Equal amounts of protein (15-50 μg) were separated by SDS-PAGE and transferred to nitrocellulose membranes (Invitrogen by Thermo Fisher Scientific). The membrane was stained with Ponceau S Stain (Boston BioProducts) to verify uniform protein loading. Membranes were blocked with 10% milk and expression levels of PUMA was assessed by incubating overnight at 4° C. with the antibody PUMA (D30C10) from Cell Signaling Technology (#12450) and active/cleaved forms of caspase 3, caspase 6 and caspase 9 by incubating overnight at 4° C. with the following antibodies: cleaved caspase-3 (Asp175) (5A1E), cleaved caspase-6 (Asp162) and cleaved caspase-9 (Asp330) (D2D4) (all antibodies from Cell Signaling Technology). Then the membranes were incubated with HRP-conjugated secondary antibody (Jackson Immunoresearch, West Grove, PA). Bands were incubated in Amersham ECL Prime Western Blotting Detection Reagent (GE Healthcare) and visualized using the ChemiDoc MP imaging system (Bio-Rad).
# active/cleaved caspase 6 = assay: Cell-based caspase activation assay (western blot); design: species or system human
# Method: as §1, §2, §3, §4, §5
# active/cleaved caspase 9 = assay: Cell-based caspase activation assay (western blot); design: species or system human
# Method: as §1, §2, §3, §4, §5
# PUMA expression = assay: Cell-based Puma expression assay (western blot); design: species or system human
# Method: as §1, §2, §3, §4, §5
smiles,measurement,setting,value
"COc1ccnc(Nc2nc(-c3nccn3C)nn3cc(-c4ccn(C(C)C)n4)c(C)c23)c1 [Compound 58, 6-(1-Isopropyl-1H-pyrazol-3-yl)-N-(4-methoxypyridin-2-yl)-5-methyl-2-(1-methyl-1H-imidazol-2-yl)pyrrolo[2,1-f][1,2,4]triazin-4-amine]",IC50,[1],< 150 nM
same,IC50,[2],< 150 nM
same,Caspase 3 activation,"active/cleaved caspase 3; A549, after 48 hours",yes
same,Caspase 3 activation,"active/cleaved caspase 3; BT-549, after 48 hours",yes
same,Caspase 3 activation,"active/cleaved caspase 3; MiaPaca2, after 48 hours",yes
same,Caspase 6 activation,"active/cleaved caspase 6; A549, after 48 hours",yes
same,Caspase 6 activation,"active/cleaved caspase 6; BT-549, after 48 hours",yes
same,Caspase 6 activation,"active/cleaved caspase 6; MiaPaca2, after 48 hours",yes
same,Caspase 9 activation,"active/cleaved caspase 9; A549, after 48 hours",yes
same,Caspase 9 activation,"active/cleaved caspase 9; BT-549, after 48 hours",yes
same,Caspase 9 activation,"active/cleaved caspase 9; MiaPaca2, after 48 hours",yes
same,Increased PUMA expression,"PUMA expression; A549, after 48 hours",yes
same,Increased PUMA expression,"PUMA expression; BT-549, after 48 hours",yes
same,Increased PUMA expression,"PUMA expression; MiaPaca2, after 48 hours",yes
